Data taken from patent US10550100B2, “5-[3-[piperzin-1-yl]-3-oxo-propyl]-imidazolidine-2,4-dione derivatives as ADAMTS 4 and 5 inhibitors for treating E.G. osteoarthritis” (GALAPAGOS NV, priority 2016, dated 2020).
Like-named read-outs stand apart in the source and are kept apart here.

Assays:
Format in all cases: biochemical
human TACE = human TACE (Homo sapiens (Human), UniProt P78536); assay: hTACE 5FAM-[…]-5TAMRA cleavage assay; conditions: 75 min at room temperature, read-out: hTACE potency IC50
Sequence of human TACE (P78536 215-671): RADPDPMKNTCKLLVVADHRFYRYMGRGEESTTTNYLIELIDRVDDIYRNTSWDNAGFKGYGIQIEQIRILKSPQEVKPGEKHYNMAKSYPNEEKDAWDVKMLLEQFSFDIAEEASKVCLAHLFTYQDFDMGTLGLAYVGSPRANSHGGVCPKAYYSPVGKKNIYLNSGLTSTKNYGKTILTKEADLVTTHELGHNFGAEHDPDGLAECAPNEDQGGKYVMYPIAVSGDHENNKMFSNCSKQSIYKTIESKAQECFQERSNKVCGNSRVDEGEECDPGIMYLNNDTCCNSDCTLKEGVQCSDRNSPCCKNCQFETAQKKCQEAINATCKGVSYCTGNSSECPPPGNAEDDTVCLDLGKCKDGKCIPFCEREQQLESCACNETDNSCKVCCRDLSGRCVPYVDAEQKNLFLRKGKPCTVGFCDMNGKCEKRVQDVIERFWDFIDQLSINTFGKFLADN
Protocol: Finally, the fluorescence is read on the Envision (Perkin Elmer) after an incubation of 75 min at room temperature (Excitation 485 nm, Emission 530).

human MMP13 [1] = target: T1, human MMP13 (Homo sapiens (Human), UniProt P45452); assay: hMMP13 390 MMP FRET Substrate I cleavage assay, Protocol 1; conditions: Protocol 1, 390 MMP FRET Substrate I; read-out: hMMP-13 potency IC50
Protocol: (§1) The basis for the assay is the cleavage of the substrate 390 MMP FRET Substrate I (Anaspec Cat# AS-27076) by human MMP13 (Chemicon, Cat#CC068).
(§2) Human MMP13 is preactivated by incubated the enzyme in the same buffer complemented with 1 mM freshly prepared p-Aminophenylmercuric acetate (AMPA) for 1 h at 37° C.
(§3) The reaction is initiated by adding to the assay plate 390 MMP FRET Substrate I (10 μL, 2.5 μM) in the same buffer.
(§4) Finally, the fluorescence is read on the Envision (Perkin Elmer) after an incubation of 45 min at room temperature (Excitation 485 nm, Emission 530).

human ADAMTS-5 [2] = target: T2, human ADAMTS-5 (Homo sapiens (Human), UniProt Q9UNA0); assay: hADAMTS-5 TBIS-1 cleavage assay, Protocol 3; conditions: Protocol 3, TBIS-1 substrate, 90 min at 37° C.; read-out: hADAMTS-5 potency IC50
T2 sequence (Q9UNA0 262-930): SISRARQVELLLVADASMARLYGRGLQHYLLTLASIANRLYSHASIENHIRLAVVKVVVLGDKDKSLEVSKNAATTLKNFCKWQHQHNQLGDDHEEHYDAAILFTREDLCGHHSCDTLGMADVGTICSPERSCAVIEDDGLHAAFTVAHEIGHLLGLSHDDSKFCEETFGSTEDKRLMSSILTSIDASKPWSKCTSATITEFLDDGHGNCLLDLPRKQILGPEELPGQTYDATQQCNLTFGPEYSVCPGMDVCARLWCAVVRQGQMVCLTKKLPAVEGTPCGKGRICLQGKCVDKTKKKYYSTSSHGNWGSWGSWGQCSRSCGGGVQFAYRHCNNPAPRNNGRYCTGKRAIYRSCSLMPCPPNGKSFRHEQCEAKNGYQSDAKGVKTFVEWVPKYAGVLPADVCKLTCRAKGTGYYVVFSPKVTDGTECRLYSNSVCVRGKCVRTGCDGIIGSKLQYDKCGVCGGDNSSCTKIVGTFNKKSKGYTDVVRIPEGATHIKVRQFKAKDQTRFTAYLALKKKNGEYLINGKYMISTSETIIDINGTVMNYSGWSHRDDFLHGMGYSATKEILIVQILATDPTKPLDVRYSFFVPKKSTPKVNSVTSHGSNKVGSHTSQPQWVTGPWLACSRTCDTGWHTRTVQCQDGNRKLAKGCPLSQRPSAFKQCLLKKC
Protocol: (§5) The reaction is initiated by adding to the assay plate TBIS-1 (10 μL, 4.5 μM, Anaspec) in the same buffer.
Finally, the fluorescence is read on the Envision (Perkin Elmer) after an incubation of 90 min at 37° C. (Excitation 485 nm, emission 530).

rnADAMTS-5 (1-564-6H) = rnADAMTS-5 (1-564-6H) (Rattus norvegicus (Rat), UniProt Q6TY19); assay: Rat ADAMTS-5 TBIS-1 substrate cleavage assay; conditions: rnADAMTS-5, TBIS-1 substrate, 120 min at 37° C.; read-out: Rat ADAMTS-5 potency IC50
Sequence of rnADAMTS-5 (1-564-6H) (Q6TY19 entry or part of it): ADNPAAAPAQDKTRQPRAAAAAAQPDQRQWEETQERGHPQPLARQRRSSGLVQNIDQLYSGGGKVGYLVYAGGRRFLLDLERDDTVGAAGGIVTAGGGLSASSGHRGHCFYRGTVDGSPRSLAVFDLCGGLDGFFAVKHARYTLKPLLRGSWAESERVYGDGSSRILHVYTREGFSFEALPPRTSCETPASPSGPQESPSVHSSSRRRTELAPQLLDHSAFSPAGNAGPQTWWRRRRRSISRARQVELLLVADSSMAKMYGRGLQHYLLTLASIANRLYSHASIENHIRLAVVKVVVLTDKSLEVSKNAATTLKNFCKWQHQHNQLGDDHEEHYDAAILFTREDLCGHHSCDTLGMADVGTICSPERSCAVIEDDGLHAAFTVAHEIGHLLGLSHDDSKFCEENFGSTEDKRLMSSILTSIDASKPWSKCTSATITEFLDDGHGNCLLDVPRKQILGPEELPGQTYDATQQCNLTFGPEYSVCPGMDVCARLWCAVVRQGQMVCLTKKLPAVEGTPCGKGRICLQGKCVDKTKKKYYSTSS
Protocol: The basis for the assay is the cleavage of the substrate TBIS-1 (5 FAM-[…] (5TAMRA)K-NH2) (SEQ ID NO: 2) by rnADAMTS-5 (1-564-6H).
as §5
Finally, the fluorescence is read on the Envision (Perkin Elmer) after an incubation of 120 min at 37° C. (Excitation 485 nm, emission 535).

human ADAMTS6 = human ADAMTS6 (Homo sapiens (Human), UniProt Q9UKP5); assay: hADAMTS-6 520 MMP FRET substrate XII cleavage assay; conditions: 37° C. for 2 h, read-out: hADAMTS-6 potency IC50
Sequence of human ADAMTS6 (Q9UKP5 other isoform, or with tags, fused parts or gaps): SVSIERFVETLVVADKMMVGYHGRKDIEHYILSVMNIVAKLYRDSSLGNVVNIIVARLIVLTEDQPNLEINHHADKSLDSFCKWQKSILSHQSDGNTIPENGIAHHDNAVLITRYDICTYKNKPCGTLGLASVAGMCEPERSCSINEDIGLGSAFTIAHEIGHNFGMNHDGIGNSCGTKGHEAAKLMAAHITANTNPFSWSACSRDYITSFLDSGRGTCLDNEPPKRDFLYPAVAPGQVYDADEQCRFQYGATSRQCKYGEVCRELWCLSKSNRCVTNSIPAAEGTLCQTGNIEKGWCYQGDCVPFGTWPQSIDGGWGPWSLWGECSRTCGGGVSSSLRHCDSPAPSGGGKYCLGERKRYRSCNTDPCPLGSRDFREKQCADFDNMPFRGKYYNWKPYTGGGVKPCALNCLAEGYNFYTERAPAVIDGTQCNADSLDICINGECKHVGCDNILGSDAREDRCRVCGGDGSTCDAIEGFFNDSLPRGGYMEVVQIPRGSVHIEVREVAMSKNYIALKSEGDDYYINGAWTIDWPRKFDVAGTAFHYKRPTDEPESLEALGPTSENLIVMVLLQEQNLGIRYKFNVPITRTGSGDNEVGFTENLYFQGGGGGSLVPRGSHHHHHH
Procedure, shortened: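 FRET cleavage of 520 MMP Substrate XII (Arg-Pro-Lys-Pro-Tyr-Ala-Nva-Trp-Met-Lys) by 0.73 nM enzyme in 25 mM Tris pH8.0, 0.05% CHAPS, 2.5 mM CaCl2. Compound dilution series from 20 μM top, 1/5 steps; substrate added from 1 μM stock, 2 h at 37° C. Fluorescence read at exc485/em530 for IC50.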

human ADAMTS-5 [3] = target: T2, human ADAMTS-5; assay: hADAMTS-5 TBIS-1 cleavage assay, Protocol 2; conditions: Protocol 2, TBIS-1 substrate, 45 min at 37° C.; read-out: hADAMTS-5 potency IC50
Protocol: The basis for the assay is the cleavage of the substrate TBIS-1 (5 FAM-[…] (5TAMRA)K-NH2) (SEQ ID NO: 2) by human ADAMTS-5.
as §5
Finally, the fluorescence is read on the Envision (Perkin Elmer) after an incubation of 45 min at 37° C. (Excitation 485 nm, emission 530).

human MMP14 = human MMP14 (Homo sapiens (Human), UniProt P50281); assay: hMMP14 390 MMP FRET Substrate I cleavage assay; conditions: 60 min at room temperature, read-out: hMMP-14 potency IC50
Protocol: The basis for the assay is the cleavage of the substrate 390 MMP FRET Substrate I (Anaspec Cat# AS-27076) by human MMP14 (Biomol, Cat#SE-259).
as §3
Finally, the fluorescence is read on the Envision (Perkin Elmer) after an incubation of 60 min at room temperature (Excitation 485 nm, Emission 530).

human MMP13 [4] = target: T1, human MMP13; assay: hMMP13 390 MMP FRET Substrate I cleavage assay, Protocol 2; conditions: Protocol 2, 390 MMP FRET Substrate I; read-out: hMMP-13 potency IC50
Protocol: as §1, §2, §3, §4

| Compound | IC50 (human TACE; 5FAM-[…]-5TAMRA) | IC50 (human MMP13 [1]) | IC50 (human ADAMTS-5 [2]) | IC50 (rnADAMTS-5 (1-564-6H)) | IC50 (human ADAMTS6) | IC50 (human TACE; 5FAM-LAQAVRSSSRK-5TAMRA) | IC50 (human ADAMTS-5 [3]) | IC50 (human MMP14) | IC50 (human MMP13 [4]) |
| --- | --- | --- | --- | --- | --- | --- | --- | --- | --- |
| Cc1cccc(C2CCN(C(=O)[C@@H](C)C[C@@]3(C)NC(=O)NC3=O)CC2)c1 (stereo in doubt) [Cpd 27, 5-methyl-5-(2-methyl-3-oxo-3-(4-m-tolylpiperidin-yl)propyl) imidazolidine-2,4-dione] | 50 to 100 nM | > 100 nM | 25 to 50 nM | 25 to 50 nM | 25 to 50 nM |  |  |  |  |
| CC1(CCC(=O)N2CCC(c3cccc(F)c3)CC2)NC(=O)NC1=O (stereo not drawn) [Cpd 13, 5-(3-(4-(3-fluorophenyl)piperidin-1-yl)-3-oxopropyl)-5-methyl-imidazolidine-2,4-dione] |  |  |  |  | > 100 nM |  | > 100 nM |  |  |
| C[C@@H](C[C@@]1(C2CC2)NC(=O)NC1=O)C(=O)N1CCC(c2ccccc2)CC1 [Cpd 20] |  | > 100 nM | 50 to 100 nM | 50 to 100 nM | > 100 nM | > 100 nM |  |  |  |
| C[C@@H](C[C@@]1(C)NC(=O)NC1=O)C(=O)N1CCC(c2cccc(F)c2)CC1 (stereo in doubt) [Cpd 28, 5-(3-(4-(3-fluorophenyl)piperidin-1-yl)-2-methyl-3-oxopropyl)-5-methyl-imidazolidine-2,4-dione] |  | > 100 nM | 25 to 50 nM | 0.001 to 25 nM | 50 to 100 nM | > 100 nM |  |  |  |
| COc1cc(C2CCN(C(=O)CC[C@H]3NC(=O)NC3=O)CC2)cc(OC)c1Cl [Cpd 21, (R)-5-(3-(4-(4-chloro-3,5-dimethoxy-phenyl)piperidin-1-yl)-3-oxopropyl) imidazolidine-2,4-dione] |  | > 100 nM | > 100 nM | > 100 nM | 0.001 to 25 nM | > 100 nM |  |  |  |
| Cc1cccc(C2CCN(C(=O)CCC3(C)NC(=O)NC3=O)CC2)c1 (stereo not drawn) [Cpd 15, 5-methyl-5-(3-oxo-3-(4-m-tolylpiperidin-1-yl)propyl) imidazolidine-2,4-dione] |  |  |  |  | > 100 nM |  | > 100 nM |  |  |
| O=C1NC(=O)[C@H](CCC(=O)N2CCC(c3ccccc3)CC2)N1 [Cpd 1, (S)-5-[(3-oxo-3-((4S)-phenylpiperidin-1-yl)propyl]) imidazolidine-2,4-dione] |  |  |  |  | > 100 nM |  | > 100 nM |  |  |
| COc1ccccc1C1CCN(C(=O)CCC2(C)NC(=O)NC2=O)CC1 (stereo not drawn) [Cpd 6, 5-(3-(4-(2-methoxyphenyl)piperidin-1-yl)-3-oxopropyl)-5-methyl-imidazolidine-2,4-dione] |  |  |  |  | > 100 nM |  | > 100 nM |  |  |
| Cc1ccc(C2CCN(C(=O)CCC3(C)NC(=O)NC3=O)CC2)cc1 (stereo not drawn) [Cpd 8, 5-methyl-5-(3-oxo-3-(4-p-tolylpiperidin-1-yl)propyl) imidazolidine-2,4-dione] |  |  |  |  | > 100 nM |  | > 100 nM |  |  |
| C[C@@H](C[C@@]1(C)NC(=O)NC1=O)C(=O)N1CCC(c2ccccc2)CC1 [Cpd 23, (R)-5-methyl-5-((S)-2-methyl-3-oxo-3-(4-phenylpiperidin-1-yl)propyl) imidazolidine-2,4-dione] |  | > 100 nM | 50 to 100 nM | 50 to 100 nM | 50 to 100 nM | > 100 nM |  |  |  |
| C[C@@H](C[C@@]1(C)NC(=O)NC1=O)C(=O)N1CCC(c2cccc(Cl)c2)CC1 (stereo in doubt) [Cpd 29, 5-(3-(4-(3-chlorophenyl)piperidin-1-yl)-2-methyl-3-oxopropyl)-5-methyl-imidazolidine-2,4-dione] | 50 to 100 nM | > 100 nM | 25 to 50 nM | 0.001 to 25 nM | 25 to 50 nM |  |  |  |  |
| COc1cc(C2CCN(C(=O)CC[C@@]3(C)NC(=O)NC3=O)CC2)cc(N(C)C)c1Cl [Cpd 90, (5R)-5-[3-[4-[4-chloro-3-(dimethylamino)-5-methoxy-phenyl]-1-piperidyl]-3-oxo-propyl]-5-methyl-imidazolidine-2,4-dione] | 50 to 100 nM |  | > 100 nM |  | 0.001 to 25 nM |  |  | > 100 nM | > 100 nM |
| CCOc1cc(C2CCN(C(=O)CC[C@@]3(C)NC(=O)NC3=O)CC2)cc(OC)c1Cl [Cpd 87, (5R)-5-[3-[4-(4-chloro-3-ethoxy-5-methoxy-phenyl)-1-piperidyl]-3-oxo-propyl]-5-methyl-imidazolidine-2,4-dione] | 50 to 100 nM |  | > 100 nM |  | 0.001 to 25 nM |  |  | > 100 nM | > 100 nM |

Results, then the compound that gave them:

| IC50 (human TACE; 5FAM-[…]-5TAMRA) | IC50 (human MMP13 [1]) | IC50 (human ADAMTS-5 [2]) | IC50 (rnADAMTS-5 (1-564-6H)) | IC50 (human ADAMTS6) | IC50 (human TACE; 5FAM-LAQAVRSSSRK-5TAMRA) | IC50 (human ADAMTS-5 [3]) | IC50 (human MMP14) | IC50 (human MMP13 [4]) | Compound |
| --- | --- | --- | --- | --- | --- | --- | --- | --- | --- |
|  | > 100 nM | 50 to 100 nM | 50 to 100 nM | 0.001 to 25 nM | > 100 nM |  |  |  | C[C@@H](C[C@@]1(C)NC(=O)NC1=O)C(=O)N1CCC(c2ccc(Cl)cc2)CC1 (stereo in doubt) [Cpd 24, 5-(3-(4-(4-chlorophenyl)piperidin-1-yl)-2-methyl-3-oxopropyl)-5-methyl imidazolidine-2,4-dione] |
|  | > 100 nM | 50 to 100 nM | 50 to 100 nM | 25 to 50 nM | > 100 nM |  |  |  | C[C@@H](C[C@@]1(C)NC(=O)NC1=O)C(=O)N1CCC(c2ccc(F)cc2)CC1 (stereo in doubt) [Cpd 26, 5-(3-(4-(4-fluorophenyl)piperidin-1-yl)-2-methyl-3-oxopropyl)-5-methyl-imidazolidine-2,4-dione] |
| 50 to 100 nM | > 100 nM | 25 to 50 nM | 25 to 50 nM | 0.001 to 25 nM |  |  |  |  | C[C@@H](C[C@@]1(C)NC(=O)NC1=O)C(=O)N1CCC(c2cc(Cl)cc(Cl)c2)CC1 (stereo in doubt) [Cpd 25, 5-(3-(4-(3,5-dichlorophenyl)piperidin-1-yl)-2-methyl-3-oxopropyl)-5-methyl-imidazolidine-2,4-dione] |
| 50 to 100 nM | > 100 nM | > 100 nM | > 100 nM | 0.001 to 25 nM |  |  |  |  | COc1cc(C2CCN(C(=O)CCC3(C)NC(=O)NC3=O)CC2)cc(OC)c1Cl (stereo not drawn) [Cpd 22, 5-(3-(4-(4-chloro-3,5-dimethoxy-phenyl)piperidin-1-yl)-3-oxopropyl)-5-methyl-imidazolidine-2,4-dione] |
|  |  |  |  | > 100 nM |  | > 100 nM |  |  | CC1(CCC(=O)N2CCC(c3ccccc3F)CC2)NC(=O)NC1=O (stereo not drawn) [Cpd 14, 5-(3-(4-(2-fluorophenyl)piperidin-1-yl)-3-oxopropyl)-5-methyl-imidazolidine-2,4-dione] |
|  | > 100 nM | 25 to 50 nM | 50 to 100 nM | > 100 nM | > 100 nM |  |  |  | O=C1NC(=O)C(CCC(=O)N2CCC(c3cccc(Cl)c3)CC2)(C2CC2)N1 (stereo not drawn) [Cpd 18, 5-(3-(4-(3-chlorophenyl)piperidin-1-yl)-3-oxopropyl)-5-cyclopropyl-imidazolidine-2,4-dione] |
|  | > 100 nM | 25 to 50 nM | 25 to 50 nM | > 100 nM | > 100 nM |  |  |  | O=C1NC(=O)C(CCC(=O)N2CCC(c3cccc(F)c3)CC2)(C2CC2)N1 (stereo not drawn) [Cpd 19, 5-cyclopropyl-5-(3-(4-(3-fluorophenyl)piperidin-1-yl)-3-oxopropyl) imidazolidine-2,4-dione] |
|  | > 100 nM | 50 to 100 nM | 50 to 100 nM | 50 to 100 nM | > 100 nM |  |  |  | O=C1NC(=O)C(CCC(=O)N2CCC(c3cc(Cl)cc(Cl)c3)CC2)(C2CC2)N1 (stereo not drawn) [Cpd 17, 5-cyclopropyl-5-(3-(4-(3,5-dichlorophenyl)piperidin-1-yl)-3-oxopropyl) imidazolidine-2,4-dione] |
